# Assay results as given in patent US20240132484A1, “BROAD SPECTRUM ANTIVIRAL COMPOUNDS TARGETING THE SKI COMPLEX” (priority 2020, published 2024).
# Where “and” joins values, the source holds several entries; their conditions need not be identical. Identical values can stand only once. Like-named read-outs stand apart in the source and are kept apart here.
# How the values were obtained:
# SARS2 = format: cell-based, SARS-CoV-2
# cells (nuclei count) = details: for Toxicity Data: Average, Mean: average of Exp 1-3 (SMW454, SMW466, SMW480), n 9
smiles,measurement,setting,value
CN(C)CCN(Cc1ccsc1)Cc1ccco1 [SILCS12],"Percentage Infection Relative to DMSO Control, Average, Mean",SARS2,76.66% and 135.12% and 110.30% and 109.01% and 120.43%
same,Percentage Inhibition Average 1 μM,"SARS2; SARS2, 1 μM",−20.43%
same,Screening data (Relative infection to DMSO controls) Average 1 μM,"SARS2; SARS2, 1 μM, 100=DMSO control",120.43
same,Percentage Inhibition Average 5 μM,"SARS2; SARS2, 5 μM",−9.01%
same,Screening data (Relative infection to DMSO controls) Average 5 μM,"SARS2; SARS2, 5 μM, 100=DMSO control",109.01
same,Percentage Inhibition Average 10 μM,"SARS2; SARS2, 10 μM",−10.30%
same,Screening data (Relative infection to DMSO controls) Average 10 μM,"SARS2; SARS2, 10 μM, 100=DMSO control",110.30
same,Percentage Inhibition Average 25 μM,"SARS2; SARS2, 25 μM",−35.12%
same,Screening data (Relative infection to DMSO controls) Average 25 μM,"SARS2; SARS2, 25 μM, 100=DMSO control",135.12
same,Percentage Inhibition Average 50 μM,"SARS2; SARS2, 50 μM",23.34%
same,Screening data (Relative infection to DMSO controls) Average 50 μM,"SARS2; SARS2, 50 μM, 100=DMSO control",76.66
same,Average (relative infection to DMSO over the 5 tested concentrations),"SARS2; SARS2, average over 1 to 50 uM, 100=DMSO control",110.30
same,"Toxicity Data: Average, Mean",cells (nuclei count); 1 uM,103.58%
same,"Relative cell count to DMSO controls, Average 1 μM","cells (nuclei count); 1 μM, toxicity data, 100=DMSO control",103.58
same,"Toxicity Data: Average, Mean",cells (nuclei count); 5 uM,102.70%
same,"Relative cell count to DMSO controls, Average 5 μM","cells (nuclei count); 5 μM, toxicity data, 100=DMSO control",102.7
same,"Toxicity Data: Average, Mean",cells (nuclei count); 10 uM,96.10%
same,"Relative cell count to DMSO controls, Average 10 μM","cells (nuclei count); 10 μM, toxicity data, 100=DMSO control",96.1
same,"Toxicity Data: Average, Mean",cells (nuclei count); 25 uM,95.34%
same,"Relative cell count to DMSO controls, Average 25 μM","cells (nuclei count); 25 μM, toxicity data, 100=DMSO control",95.34
same,"Toxicity Data: Average, Mean",cells (nuclei count); 50 uM,66.97%
same,"Relative cell count to DMSO controls, Average 50 μM","cells (nuclei count); 50 μM, toxicity data, 100=DMSO control",66.97
same,"Relative cell count to DMSO controls, Average (for correlation analysis)",cells (nuclei count); average value over the 5 tested concentrations (1 to 50 uM),92.94
